Experimental data as given in patent US20090227781A1, “Glycolipid Derivative and Drug Containing the Same as Active Component” (priority 2005, published 2009).

What was measured:
[1] = test system: NKT cells; assay: Effect of compound on NKT cells: liver mononuclear cells incubated with compound for 48 hours; format: cell-based, C57BL/6J mice; details: 48 hours incubation; FIG. 4
Method: (§1) Mononuclear cells were separated from the livers of C57BL/6J mice (8 weeks old, female) and incubated with the compound for 48 hours. […] The reaction by α-GC and slight intake of tritium and the slight amount of cytokine production observed for the compound at 30 ng/ml were not seen in Jα18 gene-deficient mice with no NKT cells, and, therefore, these reactions were confirmed to be NKT cell-dependent reactions (see FIG. 4).

[2] = test system: mononuclear cells; assay: Effect on liver mononuclear cells of Jα18 gene-deficient mice with no NKT cells; format: cell-based
Method: as §1

[3] = test system: collagen induced arthritis (CIA); details: Nonpatent Documents 2 to 4, Patent Document 2; cited from earlier work
[4] = test system: experimental autoimmune encephalomyelitis (EAE); details: Nonpatent Documents 2 to 4, Patent Document 2; cited from earlier work

Row | Structure (SMILES) | IFN-γ production (ELISA, supernatant) [1] | IL-4 production (ELISA, supernatant) [1] | cell proliferation (intake of tritium thymidine) [1] | reaction (tritium intake, cytokine production) in mice with no NKT cells [2] | effectiveness in CIA, animal model of rheumatoid arthritis [3] | effectiveness in EAE, animal model of multiple sclerosis [4]
1 | CCCCCCCCCCCCCCCCCCCCCCCCCC(=O)N[C@@H](COC1OC(CO)C(O)C(O)C1O)[C@H](O)[C@H](O)CCCCCCCCCCCCCC (stereo partly drawn) [α-GC, α-galactosyl ceramide] | caused | caused | caused | not seen |  | 
2 | CCCCCCCCCCCCCCCCCCCCCCCC(=O)N[C@@H](COC1OC(CO)C(O)C(O)C1O)[C@H](O)[C@H](O)CCCCC (stereo partly drawn) [OCH] |  |  |  |  | high effectiveness | high effectiveness
